Converted amounts (≈) assume the structure as drawn.
Settings: not given

Structure (SMILES)	logP	solubility [µM]
OCc1ccc(Cl)c(Cl)c1	2.74	–
CC(C)(C)c1ccc(O)c(C(C)(C)C)c1	5.19	–
CCCCOC(=O)CC(CC(=O)OCCCC)(OC(C)=O)C(=O)OCCCC	–	12.4 (≈ 5 µg/mL)
CC(C)(O)CCCC1=CCC(C=O)CC1 (centres undefined)	–	29000 (≈ 6100 µg/mL)
N#CSCSc1nc2ccccc2s1	3.3	–
ClC1C(Br)C(Br)C(Br)C(Br)C1Br (centres undefined)	4.72	–
C=Cc1ccc(CC)cc1	4.19	–
Cc1cc(Cc2cc(C)cc(C(C)(C)C)c2O)c(O)c(C(C)(C)C)c1	6.25	–
Cc1ccc(Cl)c(O)c1	2.9	–
ClCC(Cl)CCl	2.27	–
Nc1cccc2c1C(=O)c1ccccc1C2=O	3.74	–
CC(CCl)OP(=O)(OC(C)CCl)OC(C)CCl (centres undefined)	2.59	–
CCCCC(CC)CN1C(=O)C2C(C1=O)C1(C(C)C)C=CC2(C)CC1 (centres undefined)	5.96	–
OCC(O)c1ccccc1Cl (centres undefined)	1.17	–
ClC(c1ccccc1)(c1ccccc1)c1ccccc1	5.25	–
O=P(OC(CCl)CCl)(OC(CCl)CCl)OC(CCl)CCl	3.65	–
COc1c(N)cccc1[N+](=O)[O-]	1.78	–
Cc1ccc(C)c(Cc2ccccc2)c1	5.65	–
COC(=O)c1cccc(C(=O)OC)c1	–	1490 (≈ 290 µg/mL)
C=Cc1ccccn1	1.54	–
CC(C)C(O)C(C)(C)CO (centres undefined)	1.24	–
Cc1ccc(C(C)(C)C)cc1	5.17	–
CC(C)(C)C(=O)O	1.48	–
OC(c1ccccc1)c1ccc(Cl)cc1 (centres undefined)	3.61	–
COc1ccc(N)c([N+](=O)[O-])c1	1.94	–
CCCCOCCOP(=O)(OCCOCCCC)OCCOCCCC	3.75	–
O=C1c2ccccc2-c2cccc3cccc1c23	4.81	–

Structure (SMILES)	logP	solubility [µM]
CCOC(=O)C(O)(c1ccc(Cl)cc1)c1ccc(Cl)cc1	4.74	–
Nc1ccc2c(c1)C(=O)c1ccccc1C2=O	3.31	–
C=C(C)C(=O)OCC(CC)(COC(=O)C(=C)C)COC(=O)C(=C)C	4.39	–
COc1ccc(C(=O)c2ccccc2)c(O)c1	3.79	–
CCCCC(CC)COC(=O)/C=C/C(=O)OCC(CC)CCCC (centres undefined)	–	294 (≈ 100 µg/mL)
S=C(NC1CCCCC1)NC1CCCCC1	3.69	–
CC(C)CCOCCC(C)C	4.25	–
C=CC1CC=CCC1 (centres undefined)	3.93	–
COc1ccccc1OCC(O)COC(N)=O (centres undefined)	0.61	–
CC(C)[N+](=O)[O-]	0.93	–
Cc1ccc(O)cc1[N+](=O)[O-]	2.18	–
Oc1cc(Cl)ccc1Oc1ccc(Cl)cc1Cl	4.76	–
CCN(CC)c1ccc2c(-c3ccccc3C(=O)O)c3ccc(N(CC)CC)cc3[o+]c2c1.[Cl-]	1.95	–
COC(=O)c1ccccc1C(=O)c1ccccc1	2.7	–
Cc1ccc([N+](=O)[O-])cc1O	2.47	–
ClC(Cl)C(Cl)C(Cl)Cl	3.23	–
CCC(C)=NO	0.63	–
O=C1CCCCC1C1=CCCCC1 (centres undefined)	3.17	–
ClCC(Cl)(Cl)CCl	2.72	–
N#CCCNCCC#N	-1.34	–
CC=C1CC2C=CC1C2 (centres undefined)	3.82	–
O=C1c2ccccc2C(=O)c2c1ccc1ccccc21	4.4	–
CC(C)CN1CCOCC1	1.17	–
CC(C)(C)c1cc(C(C)(C)C)c(O)c(C(C)(C)C)c1	6.06	–
CC(=O)CC(=O)Nc1ccc(-c2ccc(NC(=O)CC(C)=O)c(C)c2)cc1C	1.75	–
CC1CC(C)(C)CC(OOC(C)(C)C)(OOC(C)(C)C)C1 (centres undefined)	6.53	1.98 (≈ 0.6 µg/mL)
ClCCOC(c1ccccc1)c1ccccc1	4.38	–

Structure (SMILES)	logP	solubility [µM]
Cc1cc(=O)nc(C(C)C)[nH]1	0.55	–
Oc1c(Cl)cc(Cl)c2ccccc12	4.23	–
C=CC(=C)C	2.42	–
CCc1ccccc1[N+](=O)[O-]	2.58	–
CC(C)=CC=C(C)C	3.5	–
C=CC(=C)CCC=C(C)C	4.17	–
C=Cc1cccc(CC)c1	4.11	–
O=P(OCCCl)(OCCCl)OCCCl	1.44	–
O=C1CCCCCCCCCCCN1	2.92	–
COc1cccc2ccccc12	3.45	–
CNc1cccc(C)c1	2.19	–
C=CC(OC(C)=O)OC(C)=O	0.78	–
C=CCOP(=O)(OCC=C)OCC=C	1.76	–
CC(C)(OOC(C)(C)c1ccccc1)c1ccccc1	5.5	–
O=[N+]([O-])c1ccc(Cl)cc1C(F)(F)F	3.2	–
CCNc1cccc2ccccc12	3.45	–
Nc1ccc(Cc2ccc(N)c(Cl)c2)cc1Cl	3.91	–
CCOP(=S)(Oc1ccc([N+](=O)[O-])cc1)c1ccccc1 (centres undefined)	4.78	–
Oc1ccc(Cc2ccccc2)cc1	3.47	–
CCCCCC1C(=O)CCC1CC(=O)OC (centres undefined)	–	1240 (≈ 280 µg/mL)
CC(C)COc1ccc2ccccc2c1	–	6.14 (≈ 1.23 µg/mL)
S=C(SSSSC(=S)N1CCCCC1)N1CCCCC1	2.8	–
C=C(C)CC(C)(C)C	4.55	–
ClCC(Br)CBr (centres undefined)	2.96	–
BrCC(CBr)(CBr)CBr	3.99	–
BrC(Br)Br	2.4	–

Same assay, conditions: 20 °C

Structure (SMILES)	solubility [µM]
COC(C)CCOC(C)=O (centres undefined)	31500 (≈ 4600 µg/mL)

Same assay, conditions: 25 °C

Structure (SMILES)	solubility [µM]
COc1ccc(O)cc1	322000 (≈ 40000 µg/mL)
OCc1ccc(Cl)c(Cl)c1	9040 (≈ 1600 µg/mL)
O=[N+]([O-])c1cc(Cl)cc(Cl)c1O	81.7 (≈ 17 µg/mL)
CC(C)(C)c1ccc(O)c(C(C)(C)C)c1	170 (≈ 35 µg/mL)
Cc1cc(C)c(O)c(C)c1	8810 (≈ 1200 µg/mL)
C=C(C)C(=O)OCCO	768000 (≈ 100000 µg/mL)
O=C(OOC(=O)c1ccccc1)c1ccccc1	37.6 (≈ 9.1 µg/mL)
CCCCCCCCN(CCCCCCCC)CCCCCCCC	0.141 (≈ 0.05 µg/mL)
CCCCNCCCC	36400 (≈ 4700 µg/mL)
Cc1cc(Cc2cc(C)cc(C(C)(C)C)c2O)c(O)c(C(C)(C)C)c1	0.0587 (≈ 0.02 µg/mL)
CCC(C)c1cccc(C(C)CC)c1O (centres undefined)	8.72 (≈ 1.8 µg/mL)
Oc1c(Cl)cccc1Cl	11700 (≈ 1900 µg/mL)
Nc1ccc(Cl)cc1Cl	3830 (≈ 620 µg/mL)
Nc1c(Cl)cc(Cl)cc1Cl	204 (≈ 40 µg/mL)
CC(CCl)OP(=O)(OC(C)CCl)OC(C)CCl (centres undefined)	3660 (≈ 1200 µg/mL)
O=CC(Cl)(Cl)Cl	204000 (≈ 30000 µg/mL)
CCCCCC(=O)CCCCC	294 (≈ 50 µg/mL)
Nc1cccc2cccc(N)c12	5370 (≈ 850 µg/mL)
Oc1cccc(Cl)c1Cl	22100 (≈ 3600 µg/mL)
OC(c1ccccc1)c1ccc(Cl)cc1 (centres undefined)	325 (≈ 71 µg/mL)
CN(C)Cc1ccccc1	88800 (≈ 12000 µg/mL)
COc1ccc(N)c([N+](=O)[O-])c1	714 (≈ 120 µg/mL)
O=C(O)C1C(C(=O)O)C2(Cl)C(Cl)=C(Cl)C1(Cl)C2(Cl)Cl (centres undefined)	9000 (≈ 3500 µg/mL)
Nc1cccc2c(N)cccc12	2400 (≈ 380 µg/mL)

Structure (SMILES)	solubility [µM]
Clc1ccccn1	176000 (≈ 20000 µg/mL)
C=C1C2CCC(C2)C1(C)C (centres undefined)	33.8 (≈ 4.6 µg/mL)
CCCC=C(C=O)CC	4640 (≈ 586 µg/mL)
COC(=O)c1ccccc1C(=O)c1ccccc1	333 (≈ 80 µg/mL)
Cc1ccc([N+](=O)[O-])cc1O	6530 (≈ 1000 µg/mL)
ClC(Cl)C(Cl)C(Cl)Cl	1900 (≈ 410 µg/mL)
ClCC(Cl)(Cl)CCl	2640 (≈ 480 µg/mL)
CC=C1CC2C=CC1C2 (centres undefined)	74 (≈ 8.9 µg/mL)
OCC(CO)(CBr)CBr	145000 (≈ 38000 µg/mL)
C=CCc1ccc(OC)c(OC)c1	2810 (≈ 500 µg/mL)
CC(C)CN1CCOCC1	195000 (≈ 28000 µg/mL)
CC(=O)N(C)c1ccccc1	112000 (≈ 16700 µg/mL)
Oc1cc(Cl)ccc1Cl	12300 (≈ 2000 µg/mL)
CC(C)(C)c1cc(C(C)(C)C)c(O)c(C(C)(C)C)c1	133 (≈ 35 µg/mL)
COc1cccc([N+](=O)[O-])c1	3270 (≈ 500 µg/mL)
N#Cc1ccccc1C#N	3080 (≈ 395 µg/mL)
Cc1ccc(O)c([N+](=O)[O-])c1	4130 (≈ 633 µg/mL)
Cc1ccsc1	4070 (≈ 400 µg/mL)
CCc1ccccc1[N+](=O)[O-]	1590 (≈ 240 µg/mL)
ClC1CCCCC1	4220 (≈ 500 µg/mL)
CC(C)=CC=C(C)C	290 (≈ 32 µg/mL)
CCCCCCCCC#N	503 (≈ 70 µg/mL)
C=CC(=C)CCC=C(C)C	41.1 (≈ 5.6 µg/mL)
CC(=O)Nc1ccccc1O	5820 (≈ 880 µg/mL)

Structure (SMILES)	solubility [µM]
O=C(O)c1ccccc1-c1ccccc1C(=O)O	5200 (≈ 1260 µg/mL)
c1ccc2sc(SSc3nc4ccccc4s3)nc2c1	30.1 (≈ 10 µg/mL)
O=C1CCCCCCCCCCCN1	1470 (≈ 290 µg/mL)
Oc1cccc(Br)c1	133000 (≈ 23000 µg/mL)
COc1cccc2ccccc12	63.2 (≈ 10 µg/mL)
CNc1cccc(C)c1	8910 (≈ 1080 µg/mL)
Oc1c(Cl)cc(Cl)c(Cl)c1Cl	99.2 (≈ 23 µg/mL)
C=CC(OC(C)=O)OC(C)=O	56900 (≈ 9000 µg/mL)
CC(C)(OOC(C)(C)c1ccccc1)c1ccccc1	1.7 (≈ 0.46 µg/mL)
CC(C)CNCC(C)C	17000 (≈ 2200 µg/mL)
C=C(C)CCl	15500 (≈ 1400 µg/mL)
c1ccc(Nc2cccc3ccccc23)cc1	274 (≈ 60 µg/mL)
O=[N+]([O-])c1ccc(Cl)cc1C(F)(F)F	443 (≈ 100 µg/mL)
CCNc1cccc2ccccc12	642 (≈ 110 µg/mL)
O=C(O)c1ccc2ccccc2c1	273 (≈ 47 µg/mL)
N=C(Nc1ccccc1)Nc1ccccc1	4730 (≈ 1000 µg/mL)
Oc1ccc(Cc2ccccc2)cc1	397 (≈ 73.2 µg/mL)
O=[N+]([O-])c1c(Cl)cc(Cl)cc1Cl	27.6 (≈ 6.25 µg/mL)
CCc1cccc(CC)c1	179 (≈ 24 µg/mL)
CC(C)=CCC/C(C)=C/CO	1490 (≈ 230 µg/mL)
OCc1c(Cl)cccc1Cl	7910 (≈ 1400 µg/mL)
CNC(=O)Oc1ccccc1C(C)C	2070 (≈ 400 µg/mL)
N#CCc1ccccc1	854 (≈ 100 µg/mL)
CCCCOCCOCCOC(C)=O	220000 (≈ 44900 µg/mL)

Reference: the OPERA property sets (Mansouri et al. 2018)
